Test results as given in patent publication US20210228695A1 (REALTA HOLDINGS, LLC, priority 2018, published 2021).
Read-outs that look alike come from different tables or passages of the source. One block for each compound: values may come before it. Ends that are not written are not given here.

Legend:
[1] = human, in vivo
Description: A patient with chronic active Epstein-Barr virus disease and hemophagocytic lymphohistiocytosis presented with ceftriaxone-induced hemolytic anemia. The patient had been evaluated in the emergency department for fever and possible sepsis after recently receiving chemotherapy. In the emergency department they received a dose of ceftriaxone (50 mg/kg). The patient had received ceftriaxone on three previous occasions with no history of adverse reaction. Within an hour they developed back pain, tachycardia and tachypnea. Over the next three hours they developed worsening distress, failed continuous positive airway pressure and required endotracheal intubation with mechanical ventilation. They also experienced hypotension requiring fluid resuscitation and a continuous epinephrine infusion.
Four hours later, their hemoglobin had decreased to 6.1 g/dL, followed by a point-of-care hemoglobin of 5.1 g/dL. They received four packed red blood cell transfusions (each 10 mL/kg) within 72 hours, after which, their hemoglobin stabilized at their initial baseline (FIG. 1A). […] There were spherocytes on their peripheral blood smear as well as red blood cell aggregation. On admission, one day later, and five days later, their total bilirubin level was 1.5 mg/dL, 10.7 mg/dL, and 23.1 mg/dL respectively, with 90% being conjugated. […]

[2] = patients frequently exposed to ceftriaxone; cited from earlier work
[3] = PIC1 administered to a patient with ceftriaxone-induced hemolysis (Example 2); type: in vivo, human
Description: A patient is tested for possible hemolysis as a result of treatment with ceftriaxone. The patient has an erythrocyte hemoglobin level of 6.5 g/dL, a total bilirubin level of 12.4 mg/dL, and an LDH of 16,500. The patient receives packed red blood cell transfusion, and ceftriaxone is discontinued.
Four hours later, the patient has an erythrocyte hemoglobin level of 7.9 g/dL, a total bilirubin level of 8.4 mg/dL, and an LDH of 10,500, all of which show improvement. […] The bilirubin and LDH levels continue to improve. The patient receives additional packed red blood cell transfusions as needed.

[4] = test system: classical complement pathway; conditions: 0.75 mM PIC1 and ceftriaxone together

- total bilirubin level [1]: 23.1 mg/dL
Compound: CO/N=C(\C(=O)N[C@@H]1C(=O)N2C(C(=O)O)=C(CSc3nc(=O)c(=O)[nH]n3C)CS[C@H]12)c1csc(N)n1 [ceftriaxone, reference compound]
- patients developing anti-ceftriaxone antibodies [2]: 12.5%

Compound: IALILEPICCQERAA-dPEG24 (cysteine pairing not given here) [PIC1]
- clinical outcome ([3]; 150 mg/kg PIC1, then daily dose for three days, with transfusions as needed): completely recovered from the hemolysis
- total bilirubin level ([3]; four hours after 150 mg/kg PIC1, 12.4 mg/dL before): 8.4 mg/dL
- erythrocyte hemoglobin level ([3]; four hours after 150 mg/kg PIC1, 6.5 g/dL before): 7.9 g/dL
- LDH ([3]; four hours after 150 mg/kg PIC1, 16,500 before): 10,500
- hemolysis relative to the no ceftriaxone control [4]: returned hemolysis to the level of the no ceftriaxone control
